Assay results from PMC4669143, “Wild Edible Fruit of Prunus nepalensis Ser. (Steud), a Potential Source of Antioxidants, Ameliorates Iron Overload-Induced Hepatotoxicity and Liver Fibrosis in Mice” (PLoS ONE, 2015).
In brackets after ≈: the same amount, converted by molar mass. One block for each compound: values may come before it.

How the values were obtained:
[1] = Singlet oxygen scavenging assay; format: biochemical; conditions: mean ± S.D., n = 6
[2] = test system: iron overload induced hepatotoxicity in mice; experiment: Serum markers in iron-dextran overloaded mice after oral therapy; format: in vivo, Swiss albino mice; conditions: desirox 20 mg/kg b.w. oral
Method: (one dose every alternative days).
Aspartate amino transferase (ASAT), alanine amino transferase (ALAT), and billirubin levels in the serum were evaluated using commercially available kits from Merck (India). Moreover, alkaline phosphatase (ALP) levels in the serum were measured by a kit procured from Sentinel Diagnostics, Italy.

[3] = Superoxide anion scavenging assay; format: biochemical; conditions: mean ± S.D., n = 6
[4] = Peroxynitrite scavenging assay; format: biochemical; conditions: mean ± S.D., n = 6
[5] = DPPH radical scavenging assay; format: biochemical; conditions: mean ± S.D., n = 6
Method: Standard methods were used to evaluate the Fe^3+-reducing capacity of the extract. The DPPH (2,2-diphenyl-1-picrylhydrazyl) scavenging potential of the extract was investigated according to Ghate et al, 2013 [9]. The scavenging percentage of PNME was evaluated from the values of the control and the test samples.

[6] = Hypochlorous acid scavenging assay; format: biochemical; conditions: mean ± S.D., n = 6
[7] = Fe2+ chelating activity assay; format: biochemical; conditions: for Iron chelation activity (in words): Fig 12C
Method: (§1) The Fe^2+ chelating ability was determined as described earlier. […] The densitometric analysis of the DNA bands was performed using ImageJ 1.47v tool by the software company NIH, USA. The DNA supercoil protection capacity of the fruit extract was expressed as the [P]50 value, the amount of sample required for 50% protection. The degree of inhibition of Fe^2+-mediated lipid peroxidation was assessed by estimating the TBARS by the method of Ghate et al. 2013 [9] using freshly prepared brain homogenates of Swiss albino mouse brains. The results are expressed as a percentage of inhibition.

[8] = Hydroxyl radical scavenging assay; format: biochemical; conditions: mean ± S.D., n = 6
[9] = test system: Fe2+-mediated lipid peroxidation; experiment: Inhibition of Fe2+-mediated lipid peroxidation (TBARS) in brain homogenates; format: biochemical, Swiss albino mouse; conditions: mouse brain homogenate, mean ± S.D., n = 6
Method: as §1

IC50 Singlet oxygen (1O2) scavenging [1]: 46.15 ± 1.16 µg/mL (≈ 224 µM)
Compound: O=C(O)CCCC[C@@H]1CCSS1 (racemic) [Lipoic acid]

IC50 Peroxynitrite (ONOO-) scavenging [4]: 0.876 ± 0.57 mg/mL (≈ 5150 µM)
Compound: O=C(O)c1cc(O)c(O)c(O)c1 [Gallic acid]

IC50 Iron chelating activity ([7]; mean ± S.D., n = 6): 1.27 ± 0.05 µg/mL (≈ 4.35 µM)
Compound: O=C(O)CN(CCN(CC(=O)O)CC(=O)O)CC(=O)O [EDTA, Ethylenediamine tetraacetic acid]

IC50 Lipid peroxidation [9]: 6.76 ± 0.17 µg/mL (≈ 27 µM)
Compound: Cc1c(C)c2c(c(C)c1O)CCC(C)(C(=O)O)O2 (stereo not shown) [Trolox, 6-hydroxy-2,5,7,8-tetramethylchroman-2-carboxylic acid]

The remaining lines, values behind:

Compound: O=C(O)c1ccc(-n2nc(-c3ccccc3O)nc2-c2ccccc2O)cc1 [desirox, Deferasirox]
ALAT % change ([2]; D, change versus blank group B): 52.80%
ALP % change ([2]; D, change versus blank group B): 84.44%
ASAT % change ([2]; D, change versus blank group B): 17.36%
Bilirubin % change ([2]; D, change versus blank group B): 10.97%
ALAT ([2]; serum, 21 days (D)): 23.55±1.09 ^X3Y3 Unit/L
ALP ([2]; serum, 21 days (D)): 61.01± 2.44 ^X3Y3 Unit/L
ASAT ([2]; serum, 21 days (D)): 79.35±4.37 ^X1 Y3 Unit/L

Compound: O=c1c(O)c(-c2ccc(O)c(O)c2)oc2cc(O)cc(O)c12 [Quercetin]
IC50 Superoxide anion (O2•−) scavenging [3]: 42.06 ± 1.35 µg/mL (≈ 139 µM)

Compound: O=C1O[C@H]([C@@H](O)CO)C(O)=C1O [Ascorbic acid]
IC50 DPPH scavenging [5]: 5.29 ± 0.28 µg/mL (≈ 30 µM)
IC50 Hypochlorous acid (HOCl) scavenging [6]: 235.96 ± 5.75 µg/mL (≈ 1340 µM)
Iron chelation activity (in words) [7]: failed to show any activity

Compound: OC[C@@H](O)[C@@H](O)[C@H](O)[C@H](O)CO [Mannitol]
IC50 Hydroxyl radical (OH•) scavenging [8]: 571.45 ± 20.12 µg/mL (≈ 3140 µM)

Compound: tannic acid
Iron chelation activity (in words) [7]: most potent iron chelator

Compound: COC(=O)[C@H]1[C@H]2C[C@@H]3c4[nH]c5cc(OC)ccc5c4CCN3C[C@H]2C[C@@H](OC(=O)c2cc(OC)c(OC)c(OC)c2)[C@@H]1OC [Reserpine, reserpine]
Iron chelation activity (in words) [7]: failed to show any activity

Compound: O.Oc1cc(O)c2c(c1)O[C@H](c1ccc(O)c(O)c1)[C@@H](O)C2 [catechin]
Iron chelation activity (in words) [7]: failed to show any activity
